Data taken from patent publication US10508120B2, “TYK2 inhibitors and uses thereof” (Nimbus Lakshmi, Inc., priority 2017, dated 2019).

Key:
JAK2 kinase domain (JH1) = JAK2 kinase domain (JH1) (Homo sapiens (Human), UniProt O60674); test: JAK2 Radioactive Kinase Assay; type: biochemical; settings: compound at 10 μM, ATP 10 μM; for inhibition at 10 µM: read-out: JAK2 JH1% Inhibition @ 10 μM
In short: (§1)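 Values are single-concentration percent inhibition figures. They were obtained with 10 μM compound in a radioactivity-based kinase assay run separately on each enzyme.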

[1] = target: JAK2/JAK2 homdimeric complex (Homo sapiens (Human), UniProt O60674); test: GM-CSF Induced pSTAT5 in Human PBMC; type: cell-based; settings: GM-CSF 5 ng/mL for 20 minutes, pSTAT5 by MSD, read-out: PBMC_GMCSF_pSTAT5 IC50
Sequence of JAK2/JAK2 homdimeric complex (O60674 whole entry): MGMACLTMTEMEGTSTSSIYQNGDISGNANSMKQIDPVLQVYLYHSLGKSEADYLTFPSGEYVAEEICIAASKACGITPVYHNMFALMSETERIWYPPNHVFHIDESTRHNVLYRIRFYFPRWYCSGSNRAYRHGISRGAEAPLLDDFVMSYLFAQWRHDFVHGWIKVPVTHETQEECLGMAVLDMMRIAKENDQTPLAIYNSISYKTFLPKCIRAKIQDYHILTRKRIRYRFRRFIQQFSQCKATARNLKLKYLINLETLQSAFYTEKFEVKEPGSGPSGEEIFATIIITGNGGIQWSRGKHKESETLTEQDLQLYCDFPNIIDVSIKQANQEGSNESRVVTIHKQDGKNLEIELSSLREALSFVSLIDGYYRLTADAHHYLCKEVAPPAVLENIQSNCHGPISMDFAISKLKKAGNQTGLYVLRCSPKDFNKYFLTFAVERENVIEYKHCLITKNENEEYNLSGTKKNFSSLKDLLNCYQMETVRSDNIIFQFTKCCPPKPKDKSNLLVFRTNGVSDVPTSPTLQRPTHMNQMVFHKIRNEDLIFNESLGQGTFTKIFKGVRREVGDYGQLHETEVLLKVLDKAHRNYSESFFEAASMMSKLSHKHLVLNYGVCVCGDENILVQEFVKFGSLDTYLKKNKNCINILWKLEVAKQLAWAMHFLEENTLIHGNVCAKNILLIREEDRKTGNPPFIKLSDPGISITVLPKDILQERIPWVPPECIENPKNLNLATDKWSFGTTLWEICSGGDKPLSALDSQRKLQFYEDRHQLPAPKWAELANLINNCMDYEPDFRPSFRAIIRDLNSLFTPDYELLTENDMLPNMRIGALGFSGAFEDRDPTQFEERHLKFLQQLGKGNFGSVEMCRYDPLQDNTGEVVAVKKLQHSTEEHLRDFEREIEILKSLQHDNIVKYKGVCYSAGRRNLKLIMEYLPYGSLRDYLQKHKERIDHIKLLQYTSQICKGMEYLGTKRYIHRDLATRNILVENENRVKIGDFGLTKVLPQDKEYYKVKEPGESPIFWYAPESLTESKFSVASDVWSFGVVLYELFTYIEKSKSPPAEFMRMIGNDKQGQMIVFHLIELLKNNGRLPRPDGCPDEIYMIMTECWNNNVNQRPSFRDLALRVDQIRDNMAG
Sequence of JAK2/JAK2 homdimeric complex (P32927 17-897 partner): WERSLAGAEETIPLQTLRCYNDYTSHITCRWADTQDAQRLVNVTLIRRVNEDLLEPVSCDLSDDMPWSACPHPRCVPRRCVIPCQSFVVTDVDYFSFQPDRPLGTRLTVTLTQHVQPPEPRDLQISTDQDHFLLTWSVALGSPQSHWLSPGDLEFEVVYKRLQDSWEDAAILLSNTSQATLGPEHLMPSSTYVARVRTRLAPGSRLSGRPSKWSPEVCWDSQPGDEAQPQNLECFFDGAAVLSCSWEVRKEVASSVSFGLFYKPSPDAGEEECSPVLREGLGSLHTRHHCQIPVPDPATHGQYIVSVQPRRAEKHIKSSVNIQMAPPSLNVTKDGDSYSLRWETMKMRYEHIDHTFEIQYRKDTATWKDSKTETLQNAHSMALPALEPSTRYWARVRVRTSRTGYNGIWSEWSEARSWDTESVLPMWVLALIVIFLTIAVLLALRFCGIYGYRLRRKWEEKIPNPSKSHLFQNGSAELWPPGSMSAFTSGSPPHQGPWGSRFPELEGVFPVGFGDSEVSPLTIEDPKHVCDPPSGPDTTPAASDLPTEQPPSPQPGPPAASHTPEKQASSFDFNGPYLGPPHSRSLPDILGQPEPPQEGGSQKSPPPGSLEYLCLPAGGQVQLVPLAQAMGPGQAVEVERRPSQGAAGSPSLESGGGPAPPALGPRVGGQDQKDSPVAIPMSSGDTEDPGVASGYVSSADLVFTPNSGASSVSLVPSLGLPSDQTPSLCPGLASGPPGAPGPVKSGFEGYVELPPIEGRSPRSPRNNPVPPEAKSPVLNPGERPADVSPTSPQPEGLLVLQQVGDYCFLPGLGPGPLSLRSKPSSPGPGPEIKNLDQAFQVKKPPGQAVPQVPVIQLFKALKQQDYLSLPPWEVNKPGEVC

[2] = target: Tyk2/JAK2 (heterodimeric complex) (Homo sapiens (Human), UniProt P29597); test: IL-12 Induced pSTAT4 in Human PBMC; type: cell-based; settings: 1.7 ng/mL IL-12
Sequence of Tyk2/JAK2 (heterodimeric complex) (P29597 whole entry, other chains not shown): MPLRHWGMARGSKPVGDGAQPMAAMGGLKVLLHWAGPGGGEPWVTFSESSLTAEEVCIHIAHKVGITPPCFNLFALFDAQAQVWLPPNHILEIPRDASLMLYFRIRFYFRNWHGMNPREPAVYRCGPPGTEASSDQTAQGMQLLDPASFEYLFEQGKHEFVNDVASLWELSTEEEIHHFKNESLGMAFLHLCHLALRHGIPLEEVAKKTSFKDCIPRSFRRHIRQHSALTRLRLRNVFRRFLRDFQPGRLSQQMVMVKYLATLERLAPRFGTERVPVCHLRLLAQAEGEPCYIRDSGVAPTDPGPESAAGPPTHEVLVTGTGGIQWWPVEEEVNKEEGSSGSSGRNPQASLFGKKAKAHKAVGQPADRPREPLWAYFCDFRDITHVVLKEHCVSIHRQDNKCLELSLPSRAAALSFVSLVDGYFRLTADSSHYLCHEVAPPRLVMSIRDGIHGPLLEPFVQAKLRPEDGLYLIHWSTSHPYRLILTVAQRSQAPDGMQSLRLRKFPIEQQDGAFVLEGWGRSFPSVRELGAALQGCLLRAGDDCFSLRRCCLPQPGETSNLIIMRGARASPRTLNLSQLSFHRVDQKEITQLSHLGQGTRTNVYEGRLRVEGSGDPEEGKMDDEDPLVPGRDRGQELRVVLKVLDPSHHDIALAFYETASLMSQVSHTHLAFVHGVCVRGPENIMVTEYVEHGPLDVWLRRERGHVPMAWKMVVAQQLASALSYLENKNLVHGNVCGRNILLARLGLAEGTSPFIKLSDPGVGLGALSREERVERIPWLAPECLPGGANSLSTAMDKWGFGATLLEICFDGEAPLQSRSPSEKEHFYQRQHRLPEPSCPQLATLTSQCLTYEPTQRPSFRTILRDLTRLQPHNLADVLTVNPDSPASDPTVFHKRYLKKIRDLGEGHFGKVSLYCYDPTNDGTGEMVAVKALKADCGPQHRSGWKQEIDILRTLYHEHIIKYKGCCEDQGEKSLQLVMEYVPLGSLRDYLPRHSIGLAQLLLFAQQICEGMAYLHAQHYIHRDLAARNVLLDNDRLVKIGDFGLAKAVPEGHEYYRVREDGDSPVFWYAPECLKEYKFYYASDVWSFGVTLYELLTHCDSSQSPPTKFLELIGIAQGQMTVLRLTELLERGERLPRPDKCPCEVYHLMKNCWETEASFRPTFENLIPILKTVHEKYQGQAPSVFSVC
Text: The IL-12 Induced pSTAT4 assay evaluates the inhibition of IL-12 induced STAT4 phophorylation mediated by Tyk2/JAK2 (heterodimeric complex).

Tyk2 kinase domain (DH1) = Tyk2 kinase domain (DH1) (Homo sapiens (Human), UniProt P29597); test: Tyk2 Radioactive Kinase Assay; type: biochemical; settings: compound at 10 μM, ATP 10 μM; for inhibition at 10 µM: read-out: Tyk2 JH1% Inhibition @ 10 μM
Sequence of Tyk2 kinase domain (DH1) (P29597 897-1176): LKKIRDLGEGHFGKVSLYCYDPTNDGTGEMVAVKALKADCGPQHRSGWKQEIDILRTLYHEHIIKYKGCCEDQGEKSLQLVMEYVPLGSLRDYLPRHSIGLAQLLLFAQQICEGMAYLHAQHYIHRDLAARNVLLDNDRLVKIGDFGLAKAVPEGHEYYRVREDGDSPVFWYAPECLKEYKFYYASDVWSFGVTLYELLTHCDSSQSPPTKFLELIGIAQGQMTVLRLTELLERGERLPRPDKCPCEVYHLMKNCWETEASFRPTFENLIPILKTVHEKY
In short: as §1

[3] = target: human TYK2 (JH2domain-pseudokinase) (Homo sapiens (Human), UniProt P29597); test: TYK2 JH2 Domain Binding Assay (KINOMEscan)
Sequence of human TYK2 (JH2domain-pseudokinase) (P29597 556-888): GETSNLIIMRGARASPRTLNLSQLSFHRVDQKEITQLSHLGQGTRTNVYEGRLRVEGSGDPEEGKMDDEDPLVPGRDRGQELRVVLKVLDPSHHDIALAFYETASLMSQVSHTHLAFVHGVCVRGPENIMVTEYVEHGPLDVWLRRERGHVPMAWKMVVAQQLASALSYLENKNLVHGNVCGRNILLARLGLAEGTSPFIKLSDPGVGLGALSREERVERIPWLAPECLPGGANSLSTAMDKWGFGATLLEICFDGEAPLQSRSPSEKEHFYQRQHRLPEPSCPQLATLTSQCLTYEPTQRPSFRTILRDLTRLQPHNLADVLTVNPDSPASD
In short: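 Competition binding of an NFkB-DBD fusion of human TYK2 JH2 (G556–D888), expressed in HEK293 and used as crude extract at <0.1 nM, against immobilized ligand beads; 1 h at room temperature in PBS/Tween/DTT/BSA buffer, 0.9% DMSO.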

Sequence of JAK2 kinase domain (JH1) (O60674 849-1124): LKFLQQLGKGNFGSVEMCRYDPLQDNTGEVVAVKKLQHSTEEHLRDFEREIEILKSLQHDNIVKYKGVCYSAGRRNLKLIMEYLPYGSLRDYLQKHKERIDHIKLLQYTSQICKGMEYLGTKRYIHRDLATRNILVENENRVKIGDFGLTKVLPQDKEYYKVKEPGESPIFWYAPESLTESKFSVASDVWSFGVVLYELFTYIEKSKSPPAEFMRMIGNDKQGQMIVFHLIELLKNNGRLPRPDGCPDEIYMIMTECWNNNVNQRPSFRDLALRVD

| inhibition at 10 µM (JAK2 kinase domain (JH1)) [%] | IC50 [1] [nM] | IC50 [2] [nM] | inhibition at 10 µM (Tyk2 kinase domain (DH1)) [%] | Kd [3] [nM] | SMILES | JAK2 JH1% Inhibition @ 10 μM (JAK2 kinase domain (JH1)) | Tyk2 JH1% Inhibition @ 10 μM (Tyk2 kinase domain (DH1)) |
| --- | --- | --- | --- | --- | --- | --- | --- |
| < 50 | > 50000 | < 100 | < 50 | < 0.2 | CNc1cc(Nc2cccn([C@H]3CC[C@H](OC)CC3)c2=O)nc2c(C(=O)N[C@@H]3CC[C@H]3O)cnn12 [I-635] | – | – |
| < 50 | > 12500 | < 100 | < 50 | < 0.2 | CNc1cc(-c2cn(C(C)C)c3ncccc23)nc2c(C(=O)N[C@H]3CC[C@H]3O)cnn12 [I-637] | – | – |
| – | > 12500 | < 100 | – | < 0.2 | CNc1cc(-c2cn(C(C)C)c3ncccc23)nc2c(C(=O)N[C@H]3CC[C@@H]3O)cnn12 [I-639] | A (percent inhibition at 10 μM lower than 50) | A (percent inhibition at 10 μM lower than 50) |
| < 50 | > 12500 | < 100 | < 50 | < 0.2 | CNc1cc(-c2cn(C(C)C)c3ncccc23)nc2c(C(=O)N[C@@H]3CC[C@H]3O)cnn12 [I-640] | – | – |
| < 50 | > 12500 | < 100 | < 50 | < 0.2 | CNc1cc(Nc2cccc3ocnc23)nc2c(C(=O)N[C@@H]3CC[C@@H]3O)cnn12 [I-661] | – | – |
| 50 to 70 | > 2500 | < 100 | < 50 | < 0.2 | CNc1cc(Nc2cccc([C@@H]3CCCOC3)n2)nc2c(C(=O)N[C@@H]3CC[C@H]3O)cnn12 [I-665] | – | – |
| < 50 | > 12500 | < 100 | < 50 | < 0.2 | CNc1cc(Nc2cccc([C@H]3CCCOC3)n2)nc2c(C(=O)N[C@@H]3CC[C@H]3O)cnn12 [I-667] | – | – |
| < 50 | > 50000 | < 100 | < 50 | < 0.2 | CNc1cc(Nc2cccn([C@H]3CC[C@](C)(OC)CC3)c2=O)nc2c(C(=O)N[C@@H]3CC[C@@H]3O)cnn12 [I-670, N-(2-hydroxycyclobutyl)-5-((1-((1R,4S)-4-methoxy-4-methylcyclohexyl)-2-oxo-1,2-dihydropyridin-3-yl)amino)-7-(methylamino)pyrazolo[1,5-a]pyrimidine-3-carboxamide] | – | – |
| < 50 | > 50000 | < 100 | < 50 | < 0.2 | CNc1cc(Nc2cccn(-c3ncc(OC)cc3F)c2=O)nc2c(C(=O)N[C@H]3C[C@H]3F)cnn12 [I-673] | – | – |
| < 50 | > 2500 | < 100 | < 50 | < 0.2 | CNc1cc(Nc2cccn(-c3ncc(C)s3)c2=O)nc2c(C(=O)N[C@@H]3CC[C@@H]3O)cnn12 [I-677] | – | – |
| < 50 | > 12500 | < 100 | < 50 | < 0.2 | CNc1cc(Nc2cccn(-c3ccccn3)c2=O)nc2c(C(=O)NC3CC3)cnn12 [I-680] | – | – |
| < 50 | > 12500 | < 100 | < 50 | < 0.2 | CNc1cc(Nc2cccn(-c3ccccn3)c2=O)nc2c(C(=O)N[C@H]3C[C@H]3F)cnn12 [I-681] | – | – |
| < 50 | > 50000 | < 100 | < 50 | < 0.2 | CNc1cc(Nc2cc(Cl)cn(C3CCCOC3)c2=O)nc2c(C(=O)N[C@H]3C[C@H]3F)cnn12 (some centres unmarked) [I-693] | – | – |
| < 50 | > 50000 | < 100 | < 50 | < 0.2 | CNc1cc(Nc2cc(Cl)cn(C3CCCOC3)c2=O)nc2c(C(=O)NCC(C)(C)CO)cnn12 (centres unmarked) [I-694] | – | – |
| < 50 | > 50000 | < 100 | < 50 | < 0.2 | CNc1cc(Nc2cccc(N3CCC34COC4)n2)nc2c(C(=O)N[C@H]3C[C@H]3F)cnn12 [I-709] | – | – |
| < 50 | > 50000 | 100 to 500 | < 50 | < 0.2 | CNc1cc(Nc2cccnc2OC)nc2c(C(=O)NO)cnn12 [I-710, N-hydroxy-5-((2-methoxypyridin-3-yl)amino)-7-(methylamino)pyrazolo[1,5-a]pyrimidine-3-carboxamide] | – | – |
| < 50 | > 50000 | < 100 | < 50 | < 0.2 | CNc1cc(Nc2cc(Cl)cn(C3CCCOC3)c2=O)nc2c(C(=O)NC3CC3)cnn12 (centres unmarked) [I-711] | – | – |

| inhibition at 10 µM (JAK2 kinase domain (JH1)) [%] | IC50 [1] [nM] | IC50 [2] [nM] | inhibition at 10 µM (Tyk2 kinase domain (DH1)) [%] | Kd [3] [nM] | SMILES | JAK2 JH1% Inhibition @ 10 μM (JAK2 kinase domain (JH1)) | Tyk2 JH1% Inhibition @ 10 μM (Tyk2 kinase domain (DH1)) |
| --- | --- | --- | --- | --- | --- | --- | --- |
| < 50 | > 12500 | < 100 | < 50 | < 0.2 | CNc1cc(Nc2cc(Cl)cn(C3CCOCC3)c2=O)nc2c(C(=O)N[C@H]3CC[C@@H]3O)cnn12 [I-712] | – | – |
| < 50 | > 2500 | < 100 | < 50 | < 0.2 | CNc1cc(Nc2cccn(-c3ncco3)c2=O)nc2c(C(=O)NC3CC3)cnn12 [I-715] | – | – |
| < 50 | > 2500 | < 100 | < 50 | < 0.2 | CNc1cc(Nc2cccn(-c3ncco3)c2=O)nc2c(C(=O)N[C@H]3C[C@H]3F)cnn12 [I-716] | – | – |
| < 50 | > 12500 | < 100 | < 50 | < 0.2 | CNc1cc(Nc2cccn(-c3cnc(C)o3)c2=O)nc2c(C(=O)N[C@H]3C[C@H]3F)cnn12 [I-718] | – | – |
| – | > 12500 | < 100 | – | < 0.2 | CNc1cc(Nc2cccn([C@H]3CC[C@](C)(OC)CC3)c2=O)nc2c(C(=O)N[C@@H]3CC[C@@H]3O)cnn12 [I-722, N-((1S,2R)-2-hydroxycyclobutyl)-5-((1-((1R,4S)-4-methoxy-4-methylcyclohexyl)-2-oxo-1,2-dihydropyridin-3-yl)amino)-7-(methylamino)pyrazolo[1,5-a]pyrimidine-3-carboxamide] | A (percent inhibition at 10 μM lower than 50) | A (percent inhibition at 10 μM lower than 50) |
| < 50 | > 2500 | < 100 | < 50 | < 0.2 | CNc1cc(Nc2cccn([C@H]3CCCOC3)c2=O)nc2c(C(=O)N[C@@H]3CC[C@H]3O)cnn12 [I-725] | – | – |
| < 50 | > 2500 | < 100 | < 50 | < 0.2 | CNc1cc(Nc2cc(Cl)cn(C3CCCN(C)C3)c2=O)nc2c(C(=O)NC3CC3)cnn12 (centres unmarked) [I-740] | – | – |
| < 50 | > 12500 | 100 to 500 | < 50 | < 0.2 | CNc1cc(Nc2cccn(-c3cccnc3)c2=O)nc2c(C(=O)NC3CC3)cnn12 [I-747] | – | – |
| < 50 | > 2500 | < 100 | < 50 | < 0.2 | CNc1cc(Nc2cccn(-c3cccnc3)c2=O)nc2c(C(=O)N[C@@H]3C[C@@H]3F)cnn12 [I-748] | – | – |
| < 50 | > 2500 | < 100 | < 50 | < 0.2 | CNc1cc(Nc2cccc3ocnc23)nc2c(C(=O)NCC(C)(C)CO)cnn12 [I-750] | – | – |
| < 50 | > 12500 | < 100 | < 50 | < 0.2 | CNc1cc(Nc2cccn([C@@H]3CCCOC3)c2=O)nc2c(C(=O)N[C@H]3CC[C@H]3O)cnn12 [I-751] | – | – |
| < 50 | > 50000 | < 100 | < 50 | < 0.2 | CNc1cc(Nc2cc(Cl)cn(C3CCCN(C)C3)c2=O)nc2c(C(=O)N[C@@H]3C[C@@H]3F)cnn12 (some centres unmarked) [I-759] | – | – |
| < 50 | > 2500 | < 100 | < 50 | < 0.2 | CNc1cc(Nc2cccn(-c3cnco3)c2=O)nc2c(C(=O)N[C@@H]3C[C@@H]3F)cnn12 [I-762] | – | – |
| – | > 2500 | < 100 | – | < 0.2 | CNc1cc(Nc2cccc3ocnc23)nc2c(C(=O)N[C@@H]3CC[C@@H]3O)cnn12 [I-770] | A (percent inhibition at 10 μM lower than 50) | A (percent inhibition at 10 μM lower than 50) |
| < 50 | > 300 | < 100 | < 50 | < 0.2 | CNc1cc(Nc2cc(Cl)cn([C@H]3CCCOC3)c2=O)nc2c(C(=O)N[C@@H]3C[C@@H]3F)cnn12 [I-772] | – | – |
| < 50 | > 12500 | < 100 | < 50 | < 0.2 | CNc1cc(Nc2cc(Cl)cn([C@@H]3CCCOC3)c2=O)nc2c(C(=O)N[C@@H]3C[C@@H]3F)cnn12 [I-773] | – | – |
| < 50 | > 50000 | < 100 | < 50 | < 0.2 | CNc1cc(Nc2cc(Cl)cn([C@H]3CCCOC3)c2=O)nc2c(C(=O)NC3CC3)cnn12 [I-782] | – | – |
